From patent US7820624B2, “Peptide ligands” (ICH Productions Limited, priority 2003, dated 2010)

Experiments:
HepG2 cells = assay: Adenoviral transduction of HepG2 cells; type: cell-based, human; details: 10,000 particles per cell in OptiMEM
Protocol: (§1) Day 6 dendritic cells (see Example 1(v) above), or mouse bone marrow derived dendritic cells or mouse Sca1+ve stem cells, see (i) and (ii) above, were plated at 5×10^4 cells per well in a 48 well plate in 500 μl complete medium and allowed to settle for 3 hours at 37° C. Transductions were carried out in complete media, with virus being added at 100,000 viral particles/cell for 24 hours. Cells were harvested by scraping, spun down at 650 g (2000 rpm) for 5 min, resuspended in 300 μl PBS, and kept on ice before analysis. Viral transduction as determined by percentage of GFP positive cells was measured by FACS analysis. To measure percentage viability, 10 μl of 7-amino-actinomycin D (7AAD; Sigma, Poole, Dorset) was added immediately prior to analysis. Viral transduction of macrophages was carried out at 10,000 particles/cell in medium containing 2.5% FCS. […] Cells were then washed twice in PBS, trypsinised, triplicate wells pooled, spun down at 350×g for 5 min and resuspended in 300 μl PBS before analysis by flow cytometry where cell viability was to be measured, 10 μl 7AAD was added just prior to analysis.
(§2) For transduction of these other cell types, cells were seeded overnight at 5×10^4 cells per well in 24 well plates in the appropriate media. […] Where cell viability was to be measured, 10 μl 7-amino-actinomycin D (7AAD; Sigma, Poole, Dorset) was added just prior to analysis. […]

1HAEo- cells = assay: Adenoviral transduction of 1HAEo- cells; type: cell-based, human; details: 10,000 particles per cell in OptiMEM
Protocol: as §1, §2

[1] = test system: primary mouse dendritic cells; assay: Adenoviral transduction of mouse dendritic cells; type: cell-based; details: bone marrow derived DCs
Protocol: Mouse dendritic cells were prepared from whole bone marrow flushed from the marrow cavities of the femur and tibia of 5-7 week old A/J mice and cultured in Hepes buffered RPMI+Glutamax (InVitrogen, Paisley, U. K.) supplemented with 10% FCS, penicillin/streptomycin and 20 ng/ml recombinant GM-CSF. Cytokines were added to the same concentration on day 3 and the dendritic cells isolated from the floating cell fraction by MACs CD11c microbeads (Miltenyi Biotec, Bisley, U. K.) on day 6.
as §1, with “analysis.” for “analysis. To measure percentage viability, 10 μl of 7-amino-actinomycin D (7AAD; Sigma, Poole, Dorset) was added immediately prior to analysis. Viral transduction of macrophages was carried out at 10,000 particles/cell in medium containing 2.5% FCS.”

HMEC-1 cells = assay: Adenoviral transduction of HMEC-1 cells; type: cell-based, human; details: 10,000 particles per cell in OptiMEM
Protocol: as §1, §2

[2] = test system: human monocyte-derived primary macrophages; assay: Adenoviral transduction of primary macrophages; type: cell-based; details: 10,000 viral particles/cell in 2.5% serum
Protocol: (§3) Day 6 dendritic cells (see Example 1(v) above), or mouse bone marrow derived dendritic cells or mouse Sca1+ve stem cells, see (i) and (ii) above, were plated at 5×10^4 cells per well in a 48 well plate in 500 μl complete medium and allowed to settle for 3 hours at 37° C. Transductions were carried out in complete media, with virus being added at 100,000 viral particles/cell for 24 hours. Cells were harvested by scraping, spun down at 650 g (2000 rpm) for 5 min, resuspended in 300 μl PBS, and kept on ice before analysis. Viral transduction as determined by percentage of GFP positive cells was measured by FACS analysis. To measure percentage viability, 10 μl of 7-amino-actinomycin D (7AAD; Sigma, Poole, Dorset) was added immediately prior to analysis. Viral transduction of macrophages was carried out at 10,000 particles/cell in medium containing 2.5% FCS. For other cell types, cells were seeded overnight at 5×10^4 cells per well in 24-well plates in the appropriate media. Adenovirus was added in OptiMEM at 10,000 viral particles/cell, 1 ml per well in triplicate and incubated for 24 h at 37° C. Cells were then washed twice in PBS, trypsinised, triplicate wells pooled, spun down at 350×g for 5 min and resuspended in 300 μl PBS before analysis by flow cytometry where cell viability was to be measured, 10 μl 7AAD was added just prior to analysis.
10 mls of peripheral blood were diluted 1:1 with HBSS then layered on Lymphoprep (Nycomed), spun at 750 g for 30 min and purified […] were isolated from the interface. Excess Lymphoprep was removed by spinning cells down at 250 g for 10 min and any platelets present were removed by washing in HBSS twice, spinning the cells at 1200 rpm for 10 min each time. Monocytes were then isolated using MACs CD14 microbeads as described in the manufacturer's protocol. The mononuclear cells were plated into a […] flask in 10% FCS, RPMI for 1-2 hours (1 flask per 10 ml blood) before removing the supernatant and adding fresh 10% FCS, RPMI+10 ng/ml MCSF (macrophage colony stimulating factor). Half the medium was replaced with fresh 10% FCS, RPMI+MCSF (10 ng/ml) after 48 hours and the cells were used at day 6, harvesting by scraping the cells from the well.
Viral transduction was carried out at 10,000 particles/cell in medium containing 2.5% FCS. Viral transduction as determined by percentage of GFP positive cells was measured by FACS analysis. Cells were pooled from three separate transduction experiments for the calculation of results.

[3] = test system: human monocyte-derived immature dendritic cells; type: cell-based; details: 100,000 viral particles/cell
From the text: Ad5 particles with the DC-binding peptides incorporated into the HI loop of the fibre protein were produced essentially as described previously ^12. Complementary oligonucleotides encoding the peptide sequences SHVKLNS [SEQ. ID. NO.:29] (5′ CC GGAAGCCACGTGAAGCTGAACAGCG 3′ [SEQ. ID. NO.:58] and 5′ CC GGCGCTGTTCAGCTTCACGTG GCTT 3′[SEQ. ID. NO.:59]) or APSNSTA [SEQ. ID. NO.:15] (5′ CC GGAGCCCCCAGCAACAGCACCGCCG 3′ [SEQ. ID. NO.:61] and 5′ CC GGCGGCGGTGCTGTTGCTGGG GGCT 3′ [SEQ. ID. NO.:62]) were synthesized (Operon Technologies, Alameda Calif. U.S.A.). The oligo pairs were then kinased, annealed, and ligated into the unique BspE1 site of pDV137 ^12, an expression construct encoding an Ad5 fibre protein with a double point mutant (KO1) which blocks CAR binding and a linker/restriction site in the HI loop, to create pDV178 (SHVKLNS) and pDV179 (APSNSTA). Following sequence confirmation, the plasmids were used to trans-complement the fibre-deleted vector Ad5.GFP.δF^18 by transient transfection into 293 cells as described ^19. Viral particles were purified by freeze/thaw lysis and CsCl gradient centrifugation and dialyzed into 40 mM TRIS-pH 8.1/0.9% NaCl/10% glycerol and stored at −80° C. Virus was quantified by protein assay (BioRad, Hercules Calif., U.S.A.) against BSA standards and using the relation 1 μg viral protein=4×10^9 viral particles.
Retargeted adenoviruses carrying a peptide A or B were used for the transduction experiments described below. Wild type adenovirus type 5 and type 5 adenovirus having a KO1 fibre, all supplied by Dr Dan von Seggern, and as described in Nicklin 2001 Mol Ther 2001 Dec.; 4(6):534-42), were used as controls.
as §3
Cells were pooled from three separate transduction experiments for the calculation of results.

[4] = test system: day 6 immature dendritic cells; assay: Maturation of adenovirus-transduced dendritic cells in response to LPS (marker flow cytometry); type: cell-based, human; details: LPS 50 ng/ml; virus 100,000 particles per cell
Protocol: Day 6 immature dendritic cells were infected with retargeted Ad or Ad5 at 100,000 particles per cell in complete medium for 24 hours, with E. coli 026:B6 lipopolysaccharide (LPS) added following 3 hours incubation at a concentration of 50 ng/ml. As controls, dendritic cells were either incubated in complete medium for 24 hours or matured by the addition of LPS in complete medium for 24 hours, In all samples IL-4 and GM-CSF were present in the complete medium at 25 ng/ml and 100 ng/ml respectively. Cells were then phenotyped by staining as follows: a minimum of 5×10^4 cells in a volume of less than 2 ml medium were added to the recommended amount of antibody and incubated for 20 min on ice. 2 ml of ice-cold PBS was added before centrifugation at 300×g for 5 min at 4° C. The supernatant was flicked off and the pellet resuspended in 300 μl ice cold PBS. Cells from each sample were stained with antibodies to HLA-DR, CD40, CD80, CD83, CD86 and isotype matched control antibodies. Where cell viability was also measured, […] of 7AAD was added immediately prior to analysis. Cells were analysed by flow cytometry using a Epics XL (Beckman Coulter, High Wycombe, UK.) and the EXPO32 analysis software (Beckman Coulter).

Neuro-2A cells = assay: Adenoviral transduction of Neuro-2A cells; type: cell-based, mouse; details: 10,000 particles per cell in OptiMEM
Protocol: as §1, §2

[5] = test system: mouse Sca1-positive stem cells; assay: Adenoviral transduction of mouse Sca1+ve stem cells; type: cell-based
Protocol: Mouse bone marrow cells were isolated as above and Sca1+ve cells were isolated using MACs Sca1 microbeads (Miltenyi Biotec, Bisley, U.K.). These cells were plated at 7×10^4 cells/500 μl in RPMI with Glutamax-1 containing 30% FCS and penicillin/streptomycin and the following cytokines murine SCF (50 ng/ml; Preprotech, London, UK), IL-6 (20 ng/ml; Preprotech, London, UK) and Flt3-L (10 ng/ml) (R&D Systems, Oxford, U. K.).
as §1, with “analysis.” for “analysis. To measure percentage viability, 10 μl of 7-amino-actinomycin D (7AAD; Sigma, Poole, Dorset) was added immediately prior to analysis. Viral transduction of macrophages was carried out at 10,000 particles/cell in medium containing 2.5% FCS.”

Q: With “APSNSTA (Synthetic peptide binding to dendritic cells)” as the substance, how does the “Transduction, % cells transduced” value (HepG2 cells) read?
A: 79.7%

Q: What about the “Transduction, % cells transduced” value (1HAEo- cells) of the same substance?
A: 79%

Q: What about the Transduction efficiency [1] of the same substance?
A: 54.1%

Q: And the “Transduction, % cells transduced” value (HMEC-1 cells)?
A: 94.2%

Q: What about the “Transduction, % cells transduced” value [2] of the same substance?
A: 34.6%

Q: What about the “Transduction, % cells transduced” value ([2]; listed as B) of the same substance?
A: 34.6%

Q: And the “Transduction (% GFP positive cells), donor A” value ([3]; complete medium, 24 hours, donor A)?
A: 65.1%

Q: What about the “Transduction (% GFP positive cells), donor B” value ([3]; complete medium, 24 hours, donor B) of the same substance?
A: 78.9%

Q: And the “Percentage cell death, donor A” value ([3]; donor A, 7AAD)?
A: (6.6) %

Q: And the “Percentage cell death, donor B” value ([3]; donor B, 7AAD)?
A: (11.6) %

Q: And the CD40 positive cells [4]?
A: 9.8%

Q: And the CD80 positive cells [4]?
A: 10.7%

Q: What about the CD83 positive cells [4] of the same substance?
A: 18.0%

Q: What about the CD86 positive cells [4] of the same substance?
A: 96.7%

Q: And the HLA-DR positive cells [4]?
A: 72.9%

Q: And the “Transduction, % GFP-positive cells” value (Neuro-2A cells)?
A: 53.7%

Q: And the Transduction efficiency [5]?
A: 5.4%
